Data: paper PMC6478789, “A chemical toolbox for the study of bromodomains and epigenetic signaling” (Nature Communications, 2019)
Read-outs that look alike come from different tables or passages of the source.

Legend:
[1] = target: BRDT(1) (Homo sapiens, UniProt Q58F21); assay: BROMOscan ligand-binding assay
Description: (§2) BROMOscan is a binding assay based on the well-known KINOMEscan technology. This assay measures the binding of a DNA-tagged bromodomain to an immobilized BRD ligand. If an inhibitor is present, it will compete with the bromodomain binding to the immobilized ligand, resulting in reduction of a quantitative PCR (qPCR) signal in a dose-dependent manner.

[2] = target: BRDT(2) (Homo sapiens, UniProt Q58F21); assay: BROMOscan ligand-binding assay
Description: as §2

[3] = target: T1, EP300 (Homo sapiens, UniProt Q09472); assay: BROMOscan ligand-binding assay
T1 sequence (Q09472 1049-1156 limits assumed): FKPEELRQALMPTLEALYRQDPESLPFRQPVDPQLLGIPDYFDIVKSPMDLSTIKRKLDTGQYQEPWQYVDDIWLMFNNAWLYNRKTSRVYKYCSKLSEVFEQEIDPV
Description: as §2

[4] = target: T2, TRIM33(PHD,BRD) (Homo sapiens, UniProt Q9UPN9); assay: BROMOscan ligand-binding assay
T2 sequence (Q9UPN9 882-1087 limits assumed): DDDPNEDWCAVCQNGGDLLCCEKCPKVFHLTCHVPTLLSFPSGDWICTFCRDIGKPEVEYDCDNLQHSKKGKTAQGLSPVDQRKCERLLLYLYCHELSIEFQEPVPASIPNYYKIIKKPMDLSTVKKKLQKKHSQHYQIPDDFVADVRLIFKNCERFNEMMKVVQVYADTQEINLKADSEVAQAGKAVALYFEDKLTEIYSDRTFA
Description: as §2

[5] = target: T3, BRPF3 (Homo sapiens, UniProt Q9ULD4); assay: BROMOscan ligand-binding assay
T3 sequence (Q9ULD4 589-693 limits assumed): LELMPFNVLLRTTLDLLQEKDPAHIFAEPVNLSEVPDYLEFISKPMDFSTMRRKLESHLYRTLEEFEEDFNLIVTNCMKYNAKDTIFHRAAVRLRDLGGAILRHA
Description: as §2

[6] = target: T4, ATAD2B (Homo sapiens, UniProt Q9ULI0); assay: BROMOscan ligand-binding assay
T4 sequence (Q9ULI0 951-1066 limits assumed): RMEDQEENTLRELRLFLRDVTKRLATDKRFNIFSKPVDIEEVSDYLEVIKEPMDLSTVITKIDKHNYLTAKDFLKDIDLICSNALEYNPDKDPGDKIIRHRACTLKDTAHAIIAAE
Description: as §2

[7] = target: BRD3(1,2) (Homo sapiens, UniProt Q15059); assay: BROMOscan ligand-binding assay
Sequence of BRD3(1,2) (Q15059 24-416 limits assumed): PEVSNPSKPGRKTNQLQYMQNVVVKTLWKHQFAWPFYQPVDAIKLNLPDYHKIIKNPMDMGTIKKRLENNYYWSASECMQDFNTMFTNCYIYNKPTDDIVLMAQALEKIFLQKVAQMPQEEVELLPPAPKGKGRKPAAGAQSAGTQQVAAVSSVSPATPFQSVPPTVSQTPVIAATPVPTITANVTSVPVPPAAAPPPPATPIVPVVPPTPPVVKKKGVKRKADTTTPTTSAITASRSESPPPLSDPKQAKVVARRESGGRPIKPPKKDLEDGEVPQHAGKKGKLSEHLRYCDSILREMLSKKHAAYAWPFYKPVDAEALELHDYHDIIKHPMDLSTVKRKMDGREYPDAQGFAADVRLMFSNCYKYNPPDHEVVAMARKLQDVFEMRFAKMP
Description: as §2

[8] = target: T5, PCAF (Homo sapiens, UniProt Q92831); assay: BROMOscan ligand-binding assay
T5 sequence (Q92831 723-827 limits assumed): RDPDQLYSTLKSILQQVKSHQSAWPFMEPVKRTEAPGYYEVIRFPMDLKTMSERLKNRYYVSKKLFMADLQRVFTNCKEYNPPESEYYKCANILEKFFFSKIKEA
Description: as §2

[9] = target: CECR2 (Homo sapiens, UniProt Q9BXF3); assay: BROMOscan ligand-binding assay
Sequence of CECR2 (Q9BXF3 434-538 limits assumed): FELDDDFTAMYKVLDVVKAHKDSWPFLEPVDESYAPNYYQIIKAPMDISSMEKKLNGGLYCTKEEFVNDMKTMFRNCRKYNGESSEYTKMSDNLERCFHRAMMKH
Description: as §2

[10] = target: BRD8(1) (Homo sapiens, UniProt Q9H0E9); assay: BROMOscan ligand-binding assay
Sequence of BRD8(1) (Q9H0E9 706-811 limits assumed): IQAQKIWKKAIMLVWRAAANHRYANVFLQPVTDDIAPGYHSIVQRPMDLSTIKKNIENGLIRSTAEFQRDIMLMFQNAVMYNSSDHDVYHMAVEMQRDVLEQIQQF
Description: as §2

[11] = target: T6, PRMT1 (Homo sapiens, UniProt Q99873); assay: Methyl transferase scintillation proximity assay; type: biochemical; settings: average of two measurements, read-out: MTases Inhibition (%)
T6 construct: purchased DiscoverX BROMOscan (bromodomains); SGC in-house methyltransferase panel
Procedure: (§1) Assays measuring lysine and arginine methyl transferase activity have been described in Scheer et al.. A radioactivity-based scintillation proximity assay was used to monitor incorporation of a tritium-labeled methyl group into the biotinylated substrate of the methyl transferase. A 10-μl reaction containing ^3H-SAM and substrate at concentrations close to the apparent Km values for each enzyme was prepared. The reactions were quenched with 10 μl of 7.5 M guanidine hydrochloride; 180 μl of 20 mM Tris buffer (pH 8.0) were added; and the mixture was transferred to a 96-well FlashPlate and incubated for 1 h. The counts per minute (CPM) was measured on a TopCount plate reader. The CPM in the absence of compound or enzyme was defined as 100% activity and background (0%), respectively, for each dataset.

[12] = target: T7, PRMT5 (Homo sapiens, UniProt O14744); assay: Methyl transferase scintillation proximity assay; type: biochemical; settings: average of two measurements, read-out: MTases Inhibition (%)
T7 construct: purchased DiscoverX BROMOscan (bromodomains); SGC in-house methyltransferase panel
Procedure: as §1

[13] = target: T8, PRDM9 (Homo sapiens, UniProt Q9NQV7); assay: Methyl transferase scintillation proximity assay; type: biochemical; settings: average of two measurements, read-out: MTases Inhibition (%)
T8 construct: purchased DiscoverX BROMOscan (bromodomains); SGC in-house methyltransferase panel
T8 sequence (Q9NQV7 whole entry): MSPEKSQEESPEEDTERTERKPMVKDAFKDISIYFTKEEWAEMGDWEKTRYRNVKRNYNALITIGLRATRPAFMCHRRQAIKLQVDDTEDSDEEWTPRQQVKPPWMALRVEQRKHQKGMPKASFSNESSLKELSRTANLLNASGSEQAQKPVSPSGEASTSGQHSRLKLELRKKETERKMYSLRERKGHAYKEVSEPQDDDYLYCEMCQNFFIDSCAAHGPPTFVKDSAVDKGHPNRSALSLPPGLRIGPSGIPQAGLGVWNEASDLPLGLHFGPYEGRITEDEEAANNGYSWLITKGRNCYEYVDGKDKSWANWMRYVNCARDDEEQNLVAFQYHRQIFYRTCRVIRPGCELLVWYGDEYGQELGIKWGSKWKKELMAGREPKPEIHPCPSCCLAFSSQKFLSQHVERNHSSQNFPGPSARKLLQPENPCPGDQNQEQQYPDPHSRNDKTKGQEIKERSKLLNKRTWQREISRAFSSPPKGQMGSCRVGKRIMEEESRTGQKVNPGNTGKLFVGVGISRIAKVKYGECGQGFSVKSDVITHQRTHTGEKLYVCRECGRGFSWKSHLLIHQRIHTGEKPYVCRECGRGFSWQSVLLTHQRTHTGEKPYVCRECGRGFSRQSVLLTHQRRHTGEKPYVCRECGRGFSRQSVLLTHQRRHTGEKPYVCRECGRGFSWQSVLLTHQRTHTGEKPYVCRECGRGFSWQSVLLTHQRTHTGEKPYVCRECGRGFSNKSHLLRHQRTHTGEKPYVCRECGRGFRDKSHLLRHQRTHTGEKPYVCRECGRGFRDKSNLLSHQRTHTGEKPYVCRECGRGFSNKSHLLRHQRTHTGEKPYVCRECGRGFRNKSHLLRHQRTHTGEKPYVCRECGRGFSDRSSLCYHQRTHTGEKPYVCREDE
Procedure: as §1

[14] = target: T9, PRC2-EZH1 (Homo sapiens, UniProt Q92800); assay: Methyl transferase scintillation proximity assay; type: biochemical; settings: average of two measurements, read-out: MTases Inhibition (%)
T9 construct: purchased DiscoverX BROMOscan (bromodomains); SGC in-house methyltransferase panel
Procedure: as §1

[15] = target: T10, PRMT3 (Homo sapiens, UniProt O60678); assay: Methyl transferase scintillation proximity assay; type: biochemical; settings: average of two measurements, read-out: MTases Inhibition (%)
T10 construct: purchased DiscoverX BROMOscan (bromodomains); SGC in-house methyltransferase panel
T10 sequence (O60678 whole entry): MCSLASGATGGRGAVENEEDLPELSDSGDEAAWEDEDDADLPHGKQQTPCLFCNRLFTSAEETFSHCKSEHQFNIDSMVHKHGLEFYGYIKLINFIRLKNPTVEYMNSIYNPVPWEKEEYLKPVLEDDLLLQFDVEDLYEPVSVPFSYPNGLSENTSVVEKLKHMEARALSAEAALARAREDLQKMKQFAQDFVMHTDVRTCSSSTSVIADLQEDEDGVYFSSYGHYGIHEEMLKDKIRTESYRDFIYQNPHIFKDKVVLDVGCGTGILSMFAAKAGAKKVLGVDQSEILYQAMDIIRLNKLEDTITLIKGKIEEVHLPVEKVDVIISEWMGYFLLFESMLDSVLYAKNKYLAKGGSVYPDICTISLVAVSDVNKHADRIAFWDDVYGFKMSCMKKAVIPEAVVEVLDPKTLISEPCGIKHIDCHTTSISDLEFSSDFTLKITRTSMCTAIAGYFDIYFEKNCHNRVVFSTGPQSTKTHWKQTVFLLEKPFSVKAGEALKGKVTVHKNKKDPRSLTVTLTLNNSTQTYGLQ
Procedure: as §1

[16] = target: T11, SUV39H2 (Homo sapiens, UniProt Q9H5I1); assay: Methyl transferase scintillation proximity assay; type: biochemical; settings: average of two measurements, read-out: MTases Inhibition (%)
T11 construct: purchased DiscoverX BROMOscan (bromodomains); SGC in-house methyltransferase panel
Procedure: as §1

[17] = target: T12, PRMT6 (Homo sapiens, UniProt Q96LA8); assay: Methyl transferase scintillation proximity assay; type: biochemical; settings: average of two measurements, read-out: MTases Inhibition (%)
T12 construct: purchased DiscoverX BROMOscan (bromodomains); SGC in-house methyltransferase panel
Procedure: as §1

[18] = target: T13, BCDIN3D (Homo sapiens, UniProt Q7Z5W3); assay: Methyl transferase scintillation proximity assay; type: biochemical; settings: average of two measurements, read-out: MTases Inhibition (%)
T13 construct: purchased DiscoverX BROMOscan (bromodomains); SGC in-house methyltransferase panel
T13 sequence (Q7Z5W3 1-292): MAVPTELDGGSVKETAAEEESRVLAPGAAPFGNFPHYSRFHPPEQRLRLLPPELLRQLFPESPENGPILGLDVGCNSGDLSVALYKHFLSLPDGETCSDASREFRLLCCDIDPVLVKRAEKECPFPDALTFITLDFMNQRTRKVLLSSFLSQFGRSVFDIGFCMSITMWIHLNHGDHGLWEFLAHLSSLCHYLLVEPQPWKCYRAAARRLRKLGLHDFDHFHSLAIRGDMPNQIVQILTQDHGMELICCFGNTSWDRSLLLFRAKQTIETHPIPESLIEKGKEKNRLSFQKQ
Procedure: as §1

[19] = target: T14, DNMT1 (Homo sapiens, UniProt P26358); assay: Methyl transferase scintillation proximity assay; type: biochemical; settings: average of two measurements, read-out: MTases Inhibition (%)
T14 construct: purchased DiscoverX BROMOscan (bromodomains); SGC in-house methyltransferase panel
T14 sequence (P26358 whole entry): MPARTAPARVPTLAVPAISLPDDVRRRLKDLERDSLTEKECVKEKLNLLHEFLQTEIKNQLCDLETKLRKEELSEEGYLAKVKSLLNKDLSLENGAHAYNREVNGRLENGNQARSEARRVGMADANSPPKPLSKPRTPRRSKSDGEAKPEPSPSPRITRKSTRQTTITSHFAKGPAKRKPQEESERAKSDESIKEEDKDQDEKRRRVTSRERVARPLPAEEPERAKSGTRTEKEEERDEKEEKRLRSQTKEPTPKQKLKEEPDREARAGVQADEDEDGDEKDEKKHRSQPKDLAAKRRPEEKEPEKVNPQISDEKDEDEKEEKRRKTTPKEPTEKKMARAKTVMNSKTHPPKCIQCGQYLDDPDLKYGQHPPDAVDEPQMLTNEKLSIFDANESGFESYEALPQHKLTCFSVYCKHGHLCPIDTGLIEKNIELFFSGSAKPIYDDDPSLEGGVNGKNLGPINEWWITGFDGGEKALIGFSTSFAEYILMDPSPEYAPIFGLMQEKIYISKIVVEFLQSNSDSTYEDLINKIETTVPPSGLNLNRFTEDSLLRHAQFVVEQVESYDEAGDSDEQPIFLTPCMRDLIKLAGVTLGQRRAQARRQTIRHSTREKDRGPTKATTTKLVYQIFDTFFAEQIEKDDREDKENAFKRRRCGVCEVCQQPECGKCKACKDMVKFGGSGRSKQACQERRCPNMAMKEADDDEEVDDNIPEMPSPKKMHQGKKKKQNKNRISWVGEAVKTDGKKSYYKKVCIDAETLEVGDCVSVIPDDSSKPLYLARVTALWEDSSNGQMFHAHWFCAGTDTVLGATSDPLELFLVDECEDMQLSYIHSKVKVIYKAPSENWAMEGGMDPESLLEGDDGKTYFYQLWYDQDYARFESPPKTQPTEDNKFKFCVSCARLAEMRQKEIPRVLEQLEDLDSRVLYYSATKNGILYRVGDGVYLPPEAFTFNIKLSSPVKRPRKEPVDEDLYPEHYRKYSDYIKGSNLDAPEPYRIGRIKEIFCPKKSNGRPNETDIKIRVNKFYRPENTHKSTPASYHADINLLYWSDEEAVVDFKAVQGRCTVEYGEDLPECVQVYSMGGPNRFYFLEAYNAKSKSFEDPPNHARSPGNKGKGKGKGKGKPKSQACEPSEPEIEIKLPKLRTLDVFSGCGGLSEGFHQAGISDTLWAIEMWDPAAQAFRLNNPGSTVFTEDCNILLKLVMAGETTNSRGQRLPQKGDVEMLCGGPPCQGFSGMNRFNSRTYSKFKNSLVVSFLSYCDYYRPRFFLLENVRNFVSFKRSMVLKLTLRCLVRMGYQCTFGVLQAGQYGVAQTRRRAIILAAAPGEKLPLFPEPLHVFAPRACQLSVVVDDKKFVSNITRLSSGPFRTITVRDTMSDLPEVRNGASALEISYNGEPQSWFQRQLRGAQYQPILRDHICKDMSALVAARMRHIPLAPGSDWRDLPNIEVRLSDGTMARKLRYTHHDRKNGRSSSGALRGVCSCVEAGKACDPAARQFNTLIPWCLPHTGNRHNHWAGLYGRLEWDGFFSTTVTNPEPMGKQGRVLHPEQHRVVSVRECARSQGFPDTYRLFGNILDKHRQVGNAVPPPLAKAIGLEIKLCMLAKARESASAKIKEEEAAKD
Procedure: as §1

[20] = target: T15, PRMT8 (Homo sapiens, UniProt Q9NR22); assay: Methyl transferase scintillation proximity assay; type: biochemical; settings: average of two measurements, read-out: MTases Inhibition (%)
T15 construct: purchased DiscoverX BROMOscan (bromodomains); SGC in-house methyltransferase panel
T15 sequence (Q9NR22 whole entry): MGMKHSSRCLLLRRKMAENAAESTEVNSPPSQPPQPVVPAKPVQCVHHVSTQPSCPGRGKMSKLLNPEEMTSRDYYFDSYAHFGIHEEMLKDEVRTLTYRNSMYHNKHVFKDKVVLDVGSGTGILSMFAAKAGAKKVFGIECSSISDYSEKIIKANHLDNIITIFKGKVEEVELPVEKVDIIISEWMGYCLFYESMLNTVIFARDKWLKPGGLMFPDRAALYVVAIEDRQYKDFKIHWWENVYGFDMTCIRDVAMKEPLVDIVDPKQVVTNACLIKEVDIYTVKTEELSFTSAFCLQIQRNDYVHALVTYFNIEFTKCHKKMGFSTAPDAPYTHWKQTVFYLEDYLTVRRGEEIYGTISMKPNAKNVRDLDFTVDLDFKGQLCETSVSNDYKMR
Procedure: as §1

[21] = target: T16, SUV420H1 (Homo sapiens, UniProt Q4FZB7); assay: Methyl transferase scintillation proximity assay; type: biochemical; settings: average of two measurements, read-out: MTases Inhibition (%)
T16 construct: purchased DiscoverX BROMOscan (bromodomains); SGC in-house methyltransferase panel
T16 sequence (Q4FZB7 whole entry): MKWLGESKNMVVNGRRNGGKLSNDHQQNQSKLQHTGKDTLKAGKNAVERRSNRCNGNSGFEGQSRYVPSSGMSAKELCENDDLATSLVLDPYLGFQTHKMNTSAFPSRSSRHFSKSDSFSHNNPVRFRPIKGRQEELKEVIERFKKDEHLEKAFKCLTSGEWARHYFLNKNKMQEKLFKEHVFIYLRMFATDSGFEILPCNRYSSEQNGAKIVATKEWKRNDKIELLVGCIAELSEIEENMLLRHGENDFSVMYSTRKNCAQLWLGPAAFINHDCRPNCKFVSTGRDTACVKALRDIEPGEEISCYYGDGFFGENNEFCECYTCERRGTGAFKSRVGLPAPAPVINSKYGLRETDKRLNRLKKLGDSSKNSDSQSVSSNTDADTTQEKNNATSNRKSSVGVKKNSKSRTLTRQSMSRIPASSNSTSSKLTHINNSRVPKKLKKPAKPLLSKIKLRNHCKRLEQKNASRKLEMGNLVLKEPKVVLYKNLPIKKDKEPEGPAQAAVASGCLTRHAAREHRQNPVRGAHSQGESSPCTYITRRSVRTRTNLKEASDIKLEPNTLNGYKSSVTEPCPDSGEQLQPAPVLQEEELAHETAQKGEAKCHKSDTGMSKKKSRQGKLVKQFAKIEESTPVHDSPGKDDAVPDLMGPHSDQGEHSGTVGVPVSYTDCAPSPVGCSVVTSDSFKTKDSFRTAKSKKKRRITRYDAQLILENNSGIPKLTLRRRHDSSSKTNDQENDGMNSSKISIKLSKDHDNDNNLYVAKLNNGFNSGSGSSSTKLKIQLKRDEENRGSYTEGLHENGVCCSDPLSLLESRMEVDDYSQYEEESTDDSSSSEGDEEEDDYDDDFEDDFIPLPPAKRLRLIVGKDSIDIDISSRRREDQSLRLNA
Procedure: as §1

[22] = target: T17, ASH1L (Homo sapiens, UniProt Q9NR48); assay: Methyl transferase scintillation proximity assay; type: biochemical; settings: average of two measurements, read-out: MTases Inhibition (%)
T17 construct: purchased DiscoverX BROMOscan (bromodomains); SGC in-house methyltransferase panel
Procedure: as §1

[23] = read-out: KD (BROMOscan), sheet prints no unit (nM)
[24] = KD (BROMOscan), sheet prints no unit (nM)

Compound: Cc1noc(C)c1-c1ccc2c(c1)nc(CCc1ccccc1)n2CCN1CCOCC1 [CBP30-298]
- Kd ([1]; BROMOscan Gene Symbol BRDT(1)): 1.8 µM
- Kd ([2]; BROMOscan Gene Symbol BRDT(2)): 6.8 µM
- Kd ([3]; BROMOscan Gene Symbol EP300): 0.092 µM
- Kd ([4]; BROMOscan Gene Symbol TRIM33(PHD,Bromo.)): > 50000 nM
- Kd [4, 23]: > 30000 nM
- Kd ([5]; BROMOscan Gene Symbol BRPF3): > 50000 nM
- Kd [5, 23]: > 30000 nM
- Kd ([6]; BROMOscan Gene Symbol ATAD2B): > 50000 nM
- Kd [6, 23]: > 30000 nM

Compound: CCCS(=O)(=O)c1nc(NC2CC2)cc(-c2ccc3c(ccn3C3CC(C)(C)NC(C)(C)C3)c2)n1 [NVS-CECR2-1]
- Kd [7]: > 30 µM
- Kd [8]: > 30000 nM
- Kd [1]: > 30 µM
- Kd [2]: > 30 µM
- Kd [3]: > 30 µM
- Kd [4]: > 30000 nM
- Kd [5]: > 30000 nM
- Kd [9]: 0.014 µM
- Kd [10]: > 30000 nM
- Kd [6]: > 30000 nM

Compound: O=C(O)c1ccccc1O [Salicylic Acid]
- Kd ([8]; KD, PCAF): > 1.4e+07 nM
- Kd ([1]; KD, BRDT(1)): > 14000 µM
- Kd ([2]; KD, BRDT(2)): > 14000 µM
- Kd ([3]; KD, EP300): > 14000 µM
- Kd ([4]; KD, TRIM33(PHD,Bromo.)): > 1.4e+07 nM
- Kd ([5]; KD, BRPF3): > 1.4e+07 nM
- Kd ([9]; KD, CECR2): > 14000 µM
- Kd ([10]; KD, BRD8(1)): > 1.4e+07 nM
- Kd ([6]; KD, ATAD2B): > 1.4e+07 nM

Compound: CCCOc1ccn2c(C(C)=O)cc(-c3ccccc3S(C)(=O)=O)c2c1 [GSK2801]
- Kd ([7]; KD, BROMOscan Gene Symbol BRD3(1,2)): 17 µM
- Kd [8, 24]: > 30000 nM
- Kd ([8]; KD, BROMOscan Gene Symbol PCAF): > 100000 nM
- Kd ([1]; KD, BROMOscan Gene Symbol BRDT(1)): 30 µM
- Kd ([2]; KD, BROMOscan Gene Symbol BRDT(2)): 67 µM
- Kd ([3]; KD, BROMOscan Gene Symbol EP300): 70 µM
- Kd [4, 24]: > 30000 nM
- Kd ([4]; KD, BROMOscan Gene Symbol TRIM33(PHD,Bromo.)): > 100000 nM
- Kd ([5]; KD, BROMOscan Gene Symbol BRPF3): 15000 nM
- Kd ([9]; KD, BROMOscan Gene Symbol CECR2): 9 µM
- Kd [10, 24]: > 30000 nM
- Kd ([10]; KD, BROMOscan Gene Symbol BRD8(1)): > 100000 nM
- Kd [6, 24]: > 30000 nM
- Kd ([6]; KD, BROMOscan Gene Symbol ATAD2B): > 100000 nM

Compound: CN1C[C@H](Nc2cnn(C)c(=O)c2Br)C[C@H](c2ccccc2)C1 [GSK4027]
- inhibition at 10 µM [11]: 4%
- inhibition at 10 µM [12]: 8%
- inhibition at 10 µM [13]: 3%
- inhibition at 10 µM [14]: -1%
- inhibition at 10 µM [15]: 2%
- inhibition at 10 µM [16]: 5%
- inhibition at 10 µM [17]: 6%
- inhibition at 10 µM [18]: 14%
- inhibition at 10 µM [19]: 3%
- inhibition at 10 µM [20]: 15%
- inhibition at 10 µM [21]: 8%
- inhibition at 10 µM [22]: 13%

Compound: COc1cc(C#N)ccc1S(=O)(=O)Nc1ccc2c(c1)cc(C)c(=O)n2C [NI 57]
- Kd ([7]; BRD3(1,2)): 12 µM
- Kd ([8]; PCAF): 4200 nM
- Kd ([1]; BRDT(1)): 4.8 µM
- Kd ([2]; BRDT(2)): > 50 µM
- Kd ([3]; EP300): 15 µM
- Kd ([4]; TRIM33(PHD,Bromo.)): > 50000 nM
- Kd ([9]; CECR2): 12 µM
- Kd ([10]; BRD8(1)): > 50000 nM
- Kd ([6]; ATAD2B): > 50000 nM
